From PubChem BioAssay AID1745844 (Carcinogenic Potency Database (CPDB), 2022)
Activity calls are given as the source filed them. How the calls were made is not given here.

Tested on: rodent lifetime carcinogenesis bioassay, tumor incidence TD50
Assay: chronic cancer bioassays in animals – CPDB, compiled studies (AID 1745844)

Q: What does the source list for `NC(=S)Nc1cccc2ccccc12`?
A: carcinogen call (mouse, strain B6AKF1, females, oral dosing, site: any site (literature study), lesion: several types, types named in the paper, dosed 76 weeks, study length 76 weeks): negative (inactive); carcinogen call (mouse, strain B6AKF1, females, oral dosing, site: liver, lesion: hepatoma, dosed 76 weeks, study length 76 weeks): negative (inactive); carcinogen call (mouse, strain B6AKF1, females, oral dosing, site: lung, lesion: adenoma, dosed 76 weeks, study length 76 weeks): negative (inactive); carcinogen call (mouse, strain B6AKF1, males, oral dosing, site: any site (literature study), lesion: several types, types named in the paper, dosed 76 weeks, study length 76 weeks): negative (inactive); carcinogen call (mouse, strain B6AKF1, males, oral dosing, site: liver, lesion: hepatoma, dosed 76 weeks, study length 76 weeks): negative (inactive); carcinogen call (mouse, strain B6AKF1, males, oral dosing, site: lung, lesion: adenoma, dosed 76 weeks, study length 76 weeks): negative (inactive); TD50 (mouse, strain B6C3F1, females, oral dosing, site: any site (literature study), lesion: several types, types named in the paper, dosed 76 weeks, study length 76 weeks): 5.34 mg/kg/day (inactive); carcinogen call (mouse, strain B6C3F1, females, oral dosing, site: liver, lesion: hepatoma, dosed 76 weeks, study length 76 weeks): negative (inactive); carcinogen call (mouse, strain B6C3F1, females, oral dosing, site: lung, lesion: several types, types named in the paper, dosed 76 weeks, study length 76 weeks): negative (inactive); TD50 (mouse, strain B6C3F1, males, oral dosing, site: any site (literature study), lesion: several types, types named in the paper, dosed 76 weeks, study length 76 weeks): 0.7 mg/kg/day (inactive); carcinogen call (mouse, strain B6C3F1, males, oral dosing, site: liver, lesion: hepatoma, dosed 76 weeks, study length 76 weeks): negative (inactive); TD50 (mouse, strain B6C3F1, males, oral dosing, site: lung, lesion: adenoma, dosed 76 weeks, study length 76 weeks): 1.27 mg/kg/day (inactive)

Q: `O=c1cc[nH]c(=S)[nH]1` was tested. Which TD50 (mouse, strain C3H (MTV+), females, in feed, site: liver, lesion: hepatoma, dosed 73 weeks, study length 73 weeks) did it give?
A: Its TD50 is 63.3 mg/kg/day.

Q: And the TD50 (mouse, strain C3H (MTV+), males, in feed, site: liver, lesion: hepatoma, dosed 73 weeks, study length 73 weeks)?
A: The TD50 was 48.6 mg/kg/day.

Q: What about the carcinogen call (mouse, strain TM, females, in feed, site: liver, lesion: hepatoma, dosed 73 weeks, study length 73 weeks) of the same molecule?
A: The carcinogen call was “negative (inactive)”.

Q: And the carcinogen call (mouse, strain TM, males, in feed, site: liver, lesion: hepatoma, dosed 73 weeks, study length 73 weeks)?
A: The carcinogen call was “negative (inactive)”.

Q: What about the TD50 (rat, strain Fischer 344, females, in feed, site: thyroid gland, lesion: malignant tumor, dosed 103 weeks, study length 103 weeks) of the same molecule?
A: The TD50 was 22.9 mg/kg/day.

Q: And the TD50 (rat, strain Fischer 344, males, in feed, site: thyroid gland, lesion: malignant tumor, dosed 103 weeks, study length 103 weeks)?
A: Its TD50 is 8.05 mg/kg/day.

Q: With `C=CCOc1ccc(CC(=O)O)cc1Cl` as the molecule, how does the carcinogen call (rat, strain Wistar, females, in feed, site: any site (literature study), lesion: several types, types named in the paper, dosed 104 weeks, study length 104 weeks) read?
A: The carcinogen call was “negative (inactive)”.

Q: What about the carcinogen call (rat, strain Wistar, females, in feed, site: liver, lesion: several types, types named in the paper, dosed 104 weeks, study length 104 weeks) of the same molecule?
A: The carcinogen call was “negative (inactive)”.

Q: And the TD50 (rat, strain Wistar, females, in feed, site: ovary, lesion: several types, types named in the paper, dosed 104 weeks, study length 104 weeks)?
A: The TD50 was 390 mg/kg/day (inactive).

Q: What about the carcinogen call (rat, strain Wistar, males, in feed, site: any site (literature study), lesion: several types, types named in the paper, dosed 104 weeks, study length 104 weeks) of the same molecule?
A: The carcinogen call was “negative (inactive)”.

Q: And the carcinogen call (rat, strain Wistar, males, in feed, site: liver, lesion: several types, types named in the paper, dosed 104 weeks, study length 104 weeks)?
A: Its carcinogen call is “negative (inactive)”.

Q: With `N#Cc1ccc(C2CCCc3cncn32)cc1` (stereo unspecified) as the molecule, how does the carcinogen call (rat, strain Sprague-Dawley, females, by gavage, site: any site (literature study), lesion: several types, types named in the paper, dosed 104 weeks, study length 104 weeks) read?
A: Its carcinogen call is “negative (inactive)”.

Q: And the carcinogen call (rat, strain Sprague-Dawley, females, by gavage, site: liver, lesion: several types, types named in the paper, dosed 104 weeks, study length 104 weeks)?
A: The carcinogen call was “negative (inactive)”.

Q: What about the carcinogen call (rat, strain Sprague-Dawley, females, by gavage, site: mammary gland, lesion: several types, types named in the paper, dosed 104 weeks, study length 104 weeks) of the same molecule?
A: Its carcinogen call is “negative (inactive)”.

Q: What about the carcinogen call (rat, strain Sprague-Dawley, males, by gavage, site: liver, lesion: several types, types named in the paper, dosed 104 weeks, study length 104 weeks) of the same molecule?
A: Its carcinogen call is “negative (inactive)”.

Q: How did the TD50 (monkey, strain Rhesus [Macaca mulatta], both sexes, in feed, site: any site (literature study), lesion: benign tumor, dosed 774 weeks, study length 851 weeks) turn out when `Cn1cnc([N+](=O)[O-])c1Sc1ncnc2nc[nH]c12` was run?
A: Its TD50 is 4.89 mg/kg/day.

Q: What about the TD50 (monkey, strain Rhesus [Macaca mulatta], both sexes, in feed, site: any site (literature study), lesion: several types, types named in the paper, dosed 774 weeks, study length 851 weeks) of the same molecule?
A: The TD50 was 3.68 mg/kg/day.

Q: What about the TD50 (monkey, strain Rhesus [Macaca mulatta], both sexes, in feed, site: leptomeninges, lesion: lymphocytic lymphoma, dosed 774 weeks, study length 851 weeks) of the same molecule?
A: The TD50 was 6.79 mg/kg/day.

Q: What about the TD50 (monkey, strain Rhesus [Macaca mulatta], both sexes, in feed, site: salivary gland, lesion: adenoma, dosed 774 weeks, study length 851 weeks) of the same molecule?
A: Its TD50 is 2.18 mg/kg/day.

Q: And the TD50 (monkey, strain Rhesus [Macaca mulatta], both sexes, in feed, site: uterus, lesion: leiomyoma, dosed 774 weeks, study length 851 weeks)?
A: The TD50 was 2.74 mg/kg/day.

Q: What about the TD50 (mouse, strain B6C3F1, females, in feed, site: all sites, lesion: systemic and localized lymphoma, dosed 94 weeks, study length 94 weeks) of the same molecule?
A: Its TD50 is 7.59 mg/kg/day.

Q: What about the TD50 (mouse, strain B6C3F1, females, in feed, site: all sites, lesion: systemic and localized lymphoma, dosed 100 weeks, study length 100 weeks) of the same molecule?
A: Its TD50 is 43.8 mg/kg/day.

Q: What about the TD50 (mouse, strain B6C3F1, females, in feed, site: liver, lesion: hepatocellular adenoma, dosed 100 weeks, study length 100 weeks) of the same molecule?
A: The TD50 was 67.5 mg/kg/day.

Q: What about the TD50 (mouse, strain B6C3F1, females, in feed, site: lung, lesion: one or several types, types not named, dosed 94 weeks, study length 94 weeks) of the same molecule?
A: The TD50 was 4.89 mg/kg/day.

Q: What about the TD50 (mouse, strain B6C3F1, females, in feed, site: uterus, lesion: hemangioendothelioma, dosed 100 weeks, study length 100 weeks) of the same molecule?
A: The TD50 was 8.92 mg/kg/day.

Q: And the TD50 (mouse, strain B6C3F1, males, in feed, site: all sites, lesion: systemic and localized lymphoma, dosed 100 weeks, study length 100 weeks)?
A: Its TD50 is 9.66 mg/kg/day.

Q: What about the TD50 (mouse, strain B6C3F1, males, in feed, site: liver, lesion: hepatocellular carcinoma, dosed 100 weeks, study length 100 weeks) of the same molecule?
A: The TD50 was 55.9 mg/kg/day.

Q: What about the TD50 (mouse, strain B6C3F1, males, in feed, site: lung, lesion: carcinoma, dosed 100 weeks, study length 100 weeks) of the same molecule?
A: Its TD50 is 55.9 mg/kg/day.

Q: And the TD50 (rat, strain Fischer 344, females, in feed, site: ear duct, lesion: squamous-cell carcinoma, dosed 52 weeks, study length 52 weeks)?
A: The TD50 was 10.1 mg/kg/day.

Q: And the carcinogen call (rat, strain Fischer 344, females, in feed, site: liver, lesion: one or several types, types not named, dosed 52 weeks, study length 52 weeks)?
A: Its carcinogen call is “negative (inactive)”.

Q: For `CCCCC(CC)CO` (stereo unspecified), which TD50 (mouse, strain B6C3F1, females, by gavage, site: liver, lesion: hepatocellular carcinoma, dosed 80 weeks, study length 80 weeks) is on record?
A: Its TD50 is 1680 mg/kg/day.

Q: What about the TD50 (mouse, strain B6C3F1, males, by gavage, site: liver, lesion: several types, types named in the paper, dosed 80 weeks, study length 80 weeks) of the same molecule?
A: The TD50 was 1710 mg/kg/day (inactive).

Q: What about the carcinogen call (rat, strain Fischer 344, females, by gavage, site: liver, lesion: hepatocellular carcinoma, dosed 104 weeks, study length 104 weeks) of the same molecule?
A: Its carcinogen call is “negative (inactive)”.

Q: What about the carcinogen call (rat, strain Fischer 344, males, by gavage, site: liver, lesion: several types, types named in the paper, dosed 104 weeks, study length 104 weeks) of the same molecule?
A: The carcinogen call was “negative (inactive)”.

Q: `S=C=NCCCc1ccccc1` was tested. Which TD50 (rat, strain Fischer 344, males, in feed, site: testis, lesion: interstitial-cell tumor, dosed 89 weeks, study length 89 weeks) did it give?
A: Its TD50 is 4.34 mg/kg/day.

Q: How did the TD50 (rat, strain Fischer, females, in feed, site: liver, lesion: hyperplastic nodule, dosed 34 weeks, study length 52 weeks) turn out when `CN(N=O)c1ccc(C=Cc2ccnc3ccccc23)cc1` was run?
A: Its TD50 is 0.468 mg/kg/day.

Q: And the TD50 (rat, strain Fischer, males, in feed, site: liver, lesion: carcinoma, dosed 34 weeks, study length 52 weeks)?
A: Its TD50 is 4.37 mg/kg/day.

Q: And the TD50 (rat, strain Fischer, males, in feed, site: liver, lesion: hyperplastic nodule, dosed 34 weeks, study length 52 weeks)?
A: Its TD50 is 1.38 mg/kg/day.

Q: What does the source list for `NC(=O)Cc1c([O-])on[n+]1Cc1ccccc1`?
A: TD50 (mouse, strain DDD, females, in drinking water, site: liver, lesion: hepatocellular adenoma, dosed 52 weeks, study length 52 weeks): 10.2 mg/kg/day; TD50 (mouse, strain DDD, females, in drinking water, site: liver, lesion: hepatocellular carcinoma, dosed 52 weeks, study length 52 weeks): 22.6 mg/kg/day; TD50 (mouse, strain DDD, females, in drinking water, site: liver, lesion: several types, types named in the paper, dosed 52 weeks, study length 52 weeks): 10.2 mg/kg/day; TD50 (mouse, strain DDD, females, in drinking water, site: lung, lesion: adenoma, dosed 52 weeks, study length 52 weeks): 31.4 mg/kg/day; TD50 (rat, strain Donryu, males, in drinking water, site: liver, lesion: hepatocellular carcinoma, dosed 41 weeks, study length 91 weeks): 4.24 mg/kg/day; TD50 (rat, strain Donryu, males, in drinking water, site: liver, lesion: neoplastic nodule, dosed 41 weeks, study length 91 weeks): 15.1 mg/kg/day; TD50 (rat, strain Donryu, males, in drinking water, site: liver, lesion: several types, types named in the paper, dosed 41 weeks, study length 91 weeks): 4.24 mg/kg/day; carcinogen call (rat, strain Donryu, males, in feed, site: liver, lesion: one or several types, types not named, dosed 104 weeks, study length 104 weeks): negative (inactive)

Q: Which TD50 (rat, strain Sprague-Dawley, females, in feed, site: any site (literature study), lesion: several types, types named in the paper, dosed 46 weeks, study length 66 weeks) does the source give for `CN(C)/C=N/c1nnc(/C=C/c2ccc([N+](=O)[O-])o2)o1` here?
A: The TD50 was 20.6 mg/kg/day.

Q: And the TD50 (rat, strain Sprague-Dawley, females, in feed, site: duodenum, lesion: adenocarcinoma, dosed 46 weeks, study length 66 weeks)?
A: The TD50 was 336 mg/kg/day.

Q: What about the TD50 (rat, strain Sprague-Dawley, females, in feed, site: duodenum, lesion: adenomatous polyp, dosed 46 weeks, study length 66 weeks) of the same molecule?
A: Its TD50 is 336 mg/kg/day.

Q: What about the TD50 (rat, strain Sprague-Dawley, females, in feed, site: forestomach, lesion: squamous-cell papilloma, dosed 46 weeks, study length 66 weeks) of the same molecule?
A: Its TD50 is 221 mg/kg/day.

Q: And the TD50 (rat, strain Sprague-Dawley, females, in feed, site: lung, lesion: alveolar-cell carcinoma, dosed 46 weeks, study length 66 weeks)?
A: The TD50 was 683 mg/kg/day.

Q: What about the TD50 (rat, strain Sprague-Dawley, females, in feed, site: mammary gland, lesion: adenocarcinoma, dosed 46 weeks, study length 66 weeks) of the same molecule?
A: The TD50 was 20.4 mg/kg/day.

Q: What about the TD50 (rat, strain Sprague-Dawley, females, in feed, site: mammary gland, lesion: several types, types named in the paper, dosed 46 weeks, study length 66 weeks) of the same molecule?
A: The TD50 was 22.4 mg/kg/day.

Q: For `CC1CC(=O)O1` (stereo unspecified), which TD50 (rat, strain Eastern Sprague-Dawley, females, by gavage, site: forestomach, lesion: squamous-cell carcinoma, dosed 70 weeks, study length 70 weeks) is on record?
A: The TD50 was 13.8 mg/kg/day.
